According to patent US20240034753A1, “THERAPEUTIC PEPTIDES” (COHBAR, INC., priority 2020, published 2024):

How the values were obtained:
C2C12 Mouse Myoblasts = assay: Glucose utilization (glucose remaining in medium); type: cell-based; settings: metformin 1 mM, 18-22 hours
Method: The effect of the peptides on glucose metabolism can be assessed using an assay of glucose utilization in cultured cells such as mouse myoblasts. Peptides were initially prepared as 10 mM stock in DMSO and used at a final concentration of 10 μM (0.1% DMSO). C2C12 mouse myoblast cell line was purchased from American Type Culture Collection (Manassas, VA). C2C12 cultures were maintained at 37° C. in a humidified atmosphere of 5% CO2/95% air with medium changes every second day. C2C12 cells were grown in DMEM (1 g/L glucose) supplemented with 10% FBS with 100 IU/ml penicillin and 100 μg/ml streptomycin. C2C12 cells were seeded at 7,000 cells per well on 96-well plates and cultured to confluence. Once the cell reached confluence the media was changed to DMEM (1 g/L glucose) supplemented with 2% HS with 100 IU/ml penicillin and 100 μg/ml streptomycin and maintained at 37° C. in a humidified atmosphere of 5% CO2/95% air. 5 days post-induction of differentiation fresh DMEM (1 g/L glucose) supplemented with 2% HS with 100 IU/ml penicillin and 100 μg/ml streptomycin was added to cultures. Cells were maintained at 37° C. in a humidified atmosphere of 5% CO2 and 95% air for 5 hours. After 5 hours test peptides at 10 μM or controls (0.5 mM or 1 mM metformin in 1% DMSO) prepared in fresh differentiation medium were added to cells and the cultures were maintained at 37° C. in a humidified atmosphere of 5% CO2/95% air for 18-22 hours. At the end of the incubation culture media was removed from the cells and the remaining glucose concentration was measured using a Glucose Assay kit (Abcam) according to the manufacturer's instructions, using a Cytation 3 plate reader at 570 nm (BioTek, Winooski, VT). Glucose concentrations in the medium were calculated relative to 0.1% DMSO treated control cells. The relative standard deviation of the result for the 0.1% DMSO treated control was <20%. Metformin was used as a positive control for reduction of glucose levels (increased glucose utilization glucose levels for treatment with metformin (1 mM) treatment were <20% of the 0.1% DMSO treated control value. The results are reported in Table 11.

[1] = PrestoBlue cell viability assay; type: cell-based; settings: human; read-out: Cell viability, % of background corrected DMSO control value
Method: The effect of the peptides on cell viability can be assessed in cultured cells using suitable assay of viability such as the PrestoBlue® assay (Thermo Fisher Scientific, Waltham, MA). Peptides were initially prepared as 10 mM stock in DMSO and tested at a final concentration of 10 μM (0.1% DMSO). […] PrestoBlue Assay Reagent was purchased from Thermo Fisher Scientific. A172 human brain glioblastoma cell line was purchased from American Type Culture Collection (Manassas, VA). A172 cells were grown in DMEM supplemented with 10% FBS with 100 IU/ml penicillin and 100 μg/ml streptomycin. Cultures were maintained at 37° C. in a humidified atmosphere of 5% CO2/95% air. A172 cells were seeded at 8,000 cells per well on 96-well plates. […] Cell viability was determined using a PrestoBlue Assay reagent […] according to the manufacturer's instructions. Absorption for each sample well on the plate was measured using a Cytation 3 plate reader at 560 nm and 590 nm (BioTek, Winooski, VT). Activity was calculated relative to 0.1% DMSO untreated control. Treatment with 0.1% DMSO alone was used as the cell viability activity control. The relative standard deviation of the DMSO control was <5%.

[2] = tested on: SH-SY5Y Neuroblastoma Cells; assay: ATP levels (CellTiter-Glo); type: cell-based, human; settings: staurosporine 1 μM, 18-20 hours
Method: The effect of the peptides on cellular metabolism can be assessed using an assay of ATP levels in cultured cells such as human neuroblastoma cells. Peptides were initially prepared as 10 mM stock in DMSO and used at a final concentration of 10 μM (0.1% DMSO). […] CellTiter-Glo® Assay kit was purchased from Promega. SH-SY5Y human bone marrow neuroblastoma cell line was purchased from American Type Culture Collection (Manassas, VA) and licensed from Memorial Sloan-Kettering Cancer Center (New York, NY). SH-SY5Y cells were grown in DMEM/F12 medium supplemented with 10% FBS with 100 IU/ml penicillin and 100 μg/ml streptomycin. Cultures were maintained at 37° C. in a humidified atmosphere of 5% CO2/95% air. SH-SY5Y cells were seeded at 30,000 cells per well on 96-well plates. […] ATP levels were determined using a CellTiter-Glo Assay kit (Promega) according to the manufacturer's instructions. Luminescence for each sample well on the plate was measured using a Cytation 3 plate reader (BioTek, Winooski, VT). Activity was calculated relative to 0.1% DMSO treated control. The relative standard deviation of the result for the 0.1% DMSO treated control was <5%.

3T3-L1 Mouse Adipocytes = assay: Free fatty acid levels in cultured mouse adipocytes stimulated with isoproterenol; type: cell-based; settings: insulin 100 nM, 3 hours with 1 nM isoproterenol
Method: The effect of the peptides on fatty acid metabolism can be assessed using an assay of free fatty acid levels in cultured cells such as mouse adipocytes. Peptides were initially prepared as 10 mM stock in DMSO and used at a final concentration of 10 μM (0.1% DMSO). […] Mouse 3T3-L1 cells purchased from ZenBio were seeded at 3,000 cells per well in 96-well plates in Pre-adipocyte Medium (Zen-Bio) and grown to confluence at 37° C. in a humidified atmosphere of 5% CO2/95% air. Two days after confluence, cells were placed in Adipocyte Differentiation Medium (Zen-Bio) and cultured for three additional days at 37° C. in a humidified atmosphere of 5% CO2/95% air. The culture media was then replaced with Adipocyte Maintenance Medium (Zen-Bio) and the cells maintained for an additional 9-12 days at 37° C. in a humidified atmosphere of 5% CO2/95% air with partial medium replacement every other day. Following 12-15 days of differentiation, test peptides were added at a final concentration of 10 μM in 0.1% DMSO and incubated for 20-22 hours in Adipocyte Maintenance Medium at 37° C. in a humidified atmosphere of 5% CO2/95% air. After 20-22 hours, 1 nM isoproterenol was added to all wells except untreated controls and test peptides were replenished. Insulin at 100 nM was added to control wells. Cells were incubated for 3 hours in Assay Buffer (Zen-Bio) at 37° C. in a humidified atmosphere of 5% CO2/95% air. Free fatty acid concentrations in the media were determined using a Free Fatty Acid Assay kit (Zen-Bio) according to the manufacturer's instructions using a Cytation 3 plate reader at 540 nm (BioTek, Winooski, VT). Absorbance values were corrected for untreated background and expressed relative to isoproterenol treated cells. Treatment with isoproterenol (1 nM) alone was used as the free fatty acid level stimulatory control. The relative standard deviation of the isoproterenol control was <10%. […] Free fatty acid levels for insulin (100 nM) treatment were <5% of the isoproterenol control value.

CN(C)C(=N)N=C(N)N [Metformin, reference compound]
Glucose levels, % of the 0.1% DMSO treated control value (C2C12 Mouse Myoblasts): < 20%

CN[C@@H]1C[C@H]2O[C@@](C)([C@@H]1OC)n1c3ccccc3c3c4c(c5c6ccccc6n2c5c31)C(=O)NC4 [Staurosporine, reference compound]
viability at 1 µM [1]: < 75%
ATP levels, % of the 0.1% DMSO treated control value [2]: < 5%

Insulin [reference compound]
Free fatty acid levels, % of the isoproterenol control value (3T3-L1 Mouse Adipocytes): < 5%
